melting point [°C] | Structure (SMILES)
123 to 125 | CSC(Oc1cc(C)c(Br)c(C)c1)C(=O)NC(C)(C)C (stereo not drawn) [12 (15), 2-(4-bromo-3,5-dimethylphenoxy)-2-methylthio-N-(2-methyl-prop-2-yl)acetamide]
160 to 161 | CSC(Oc1cc(Cl)c2ncc(Br)cc2c1)C(=O)NC(C)(C)C (stereo not drawn) [12 (62), 2-(3-bromo-8-chloro-quinolin-6-yloxy)-N-tert-butyl-2-methylsulfanyl-acetamide]
171 to 172 | CSC(Oc1cc(I)c2ncc(Br)cc2c1)C(=O)NC(C)(C)C (stereo not drawn) [12 (62A), 2-(3-bromo-8-iodo-quinolin-6-yloxy)-N-tert-butyl-2-methylsulfanyl-acetamide]

— patent US7956188B2, “Acetamide compounds as fungicides” (Syngenta Crop Protection, Inc., priority 2004, dated 2011)
